Tests used:
[1] = test system: velvetleaf; test: Test A postemergence; assay type: in vivo, Abutilon theophrasti
How it was run: (§1)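 Pre- and postemergence greenhouse screen. Soil: loam + sand. Spray carrier: solvent mixture, non-phytotoxic, with surfactant. Post timing at 1–2 leaves, height 2–10 cm. Readout: visual injury on a 0–100 scale roughly 10 days after application, untreated plants as reference.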

[2] = test system: barnyardgrass; test: Test A preemergence; assay type: in vivo, Echinochloa crus-galli; conditions: for Plant response rating, Barnyardgrass: 125 g ai/ha, 0 to 100 scale where 0 is no effect and 100 is complete control; for Barnyardgrass plant response rating: 500 g ai/ha, 0 to 100 scale, 0 no effect, 100 complete control, approx. 10 days
How it was run: as §1

[3] = test system: Heteranthera limosa; test: Test B flooded paddy test; assay type: in vivo; conditions: Flood, 250 g ai/ha; 0 to 100 scale where 0 is no effect and 100 is complete control
How it was run: (§2)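 Post-emergence paddy-water application at the 2-leaf stage, with 3 cm flood kept for the whole test. Response was judged visually relative to controls after 13 to 15 greenhouse days, 0 indicating no effect and 100 complete control.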

[4] = test system: wheat; test: Test A preemergence; assay type: in vivo, Triticum aestivum; conditions: for Plant response rating, Wheat: 125 g ai/ha, 0 to 100 scale where 0 is no effect and 100 is complete control; for Wheat plant response rating: 500 g ai/ha, 0 to 100 scale, 0 no effect, 100 complete control, approx. 10 days
How it was run: as §1

[5] = test system: pigweed; test: Test A postemergence; assay type: in vivo, Amaranthus retroflexus
How it was run: as §1

[6] = test system: giant foxtail; test: Test A preemergence; assay type: in vivo, Setaria faberii; conditions: for Plant response rating, Foxtail, Giant: 125 g ai/ha, 0 to 100 scale where 0 is no effect and 100 is complete control; for Foxtail, Giant plant response rating: 500 g ai/ha, 0 to 100 scale, 0 no effect, 100 complete control, approx. 10 days
How it was run: as §1

[7] = test system: corn; test: Test A preemergence; assay type: in vivo, Zea mays; conditions: for Plant response rating, Corn: 125 g ai/ha, 0 to 100 scale where 0 is no effect and 100 is complete control; for Corn plant response rating: 500 g ai/ha, 0 to 100 scale, 0 no effect, 100 complete control, approx. 10 days
How it was run: as §1

[8] = test system: wheat; test: Test A postemergence; assay type: in vivo, Triticum aestivum
How it was run: as §1

[9] = test system: sedge, umbrella; test: Test B flooded paddy test; assay type: in vivo, Cyperus difformis; conditions: Flood, 250 g ai/ha; 0 to 100 scale where 0 is no effect and 100 is complete control
How it was run: as §2

[10] = test system: pigweed; test: Test A preemergence; assay type: in vivo, Amaranthus retroflexus; conditions: for Plant response rating, Pigweed: 125 g ai/ha, 0 to 100 scale where 0 is no effect and 100 is complete control; for Pigweed plant response rating: 500 g ai/ha, 0 to 100 scale, 0 no effect, 100 complete control, approx. 10 days
How it was run: as §1

[11] = test system: morningglory; test: Test A preemergence; assay type: in vivo, Ipomoea spp.; conditions: for Plant response rating, Morningglory: 125 g ai/ha, 0 to 100 scale where 0 is no effect and 100 is complete control; for Morningglory plant response rating: 500 g ai/ha, 0 to 100 scale, 0 no effect, 100 complete control, approx. 10 days
How it was run: as §1

[12] = test system: barnyardgrass; test: Test B flooded paddy test; assay type: in vivo, Echinochloa crus-galli; conditions: Flood, 250 g ai/ha; 0 to 100 scale where 0 is no effect and 100 is complete control
How it was run: as §2

[13] = test system: large (Lg) crabgrass; test: Test A postemergence; assay type: in vivo, Digitaria sanguinalis
How it was run: as §1

[14] = test system: velvetleaf; test: Test A preemergence; assay type: in vivo, Abutilon theophrasti; conditions: for Plant response rating, Velvetleaf: 125 g ai/ha, 0 to 100 scale where 0 is no effect and 100 is complete control; for Velvetleaf plant response rating: 500 g ai/ha, 0 to 100 scale, 0 no effect, 100 complete control, approx. 10 days
How it was run: as §1

[15] = test system: corn; test: Test A postemergence; assay type: in vivo, Zea mays
How it was run: as §1

[16] = test system: giant foxtail; test: Test A postemergence; assay type: in vivo, Setaria faberii
How it was run: as §1

[17] = test system: rice; test: Test B flooded paddy test; assay type: in vivo, Oryza sativa; conditions: Flood, 250 g ai/ha; 0 to 100 scale where 0 is no effect and 100 is complete control
How it was run: as §2

[18] = test system: large (Lg) crabgrass; test: Test A preemergence; assay type: in vivo, Digitaria sanguinalis; conditions: for Plant response rating, Crabgrass, Large: 125 g ai/ha, 0 to 100 scale where 0 is no effect and 100 is complete control; for Crabgrass, Large plant response rating: 500 g ai/ha, 0 to 100 scale, 0 no effect, 100 complete control, approx. 10 days
How it was run: as §1

[19] = test system: morningglory; test: Test A postemergence; assay type: in vivo, Ipomoea spp.
How it was run: as §1

[20] = test system: barnyardgrass; test: Test A postemergence; assay type: in vivo, Echinochloa crus-galli
How it was run: as §1

[21] = 125 g ai/ha, 0 to 100 scale where 0 is no effect and 100 is complete control
[22] = 500 g ai/ha, 0 to 100 scale, 0 no effect, 100 complete control

Row | Structure (SMILES) | Plant response rating, Velvetleaf [1, 21] | Plant response rating, Velvetleaf [1, 22] | Plant response rating, Barnyardgrass [2] | Barnyardgrass plant response rating [2] | Plant response rating, Ducksalad [3] | Plant response rating, Wheat [4] | Wheat plant response rating [4] | Plant response rating, Pigweed [5, 21] | Plant response rating, Pigweed [5, 22] | Plant response rating, Foxtail, Giant [6] | Foxtail, Giant plant response rating [6] | Plant response rating, Corn [7] | Corn plant response rating [7] | Plant response rating, Wheat [8, 21] | Plant response rating, Wheat [8, 22] | Plant response rating, Sedge, Umbrella [9] | Plant response rating, Pigweed [10] | Pigweed plant response rating [10] | Plant response rating, Morningglory [11] | Morningglory plant response rating [11] | also measured
1 | FC(F)(F)c1ccn(-c2ccccc2Sc2ncc(Cl)cn2)n1 [Compound 28] | 0 | 30 | 0 | 10 | 35 | 0 | 0 | 10 | 30 | 0 | 10 | 0 | 0 | 0 | 0 | 0 | 0 | 40 | 0 | 0 | Plant response rating, Barnyardgrass [12]: 0; Plant response rating, Crabgrass, Large [13, 21]: 0; Plant response rating, Crabgrass, Large [13, 22]: 20; Plant response rating, Velvetleaf [14]: 0; Velvetleaf plant response rating [14]: 0; Plant response rating, Corn [15, 21]: 0; Plant response rating, Corn [15, 22]: 20; Plant response rating, Foxtail, Giant [16, 21]: 0; Plant response rating, Foxtail, Giant [16, 22]: 10; Plant response rating, Rice [17]: 0; Plant response rating, Crabgrass, Large [18]: 0; Crabgrass, Large plant response rating [18]: 10; Plant response rating, Morningglory [19, 21]: 10; Plant response rating, Morningglory [19, 22]: 10; Plant response rating, Barnyardgrass [20, 21]: 0; Plant response rating, Barnyardgrass [20, 22]: 10
2 | CC(C)(C)c1ccn(-c2ccccc2Oc2ncc(Cl)cn2)n1 [Compound 29] | 20 | 40 | 0 | 20 | 0 | 0 | 0 | 20 | 50 | 10 | 20 | 0 | 0 | 0 | 0 | 0 | 0 | 0 | 0 | 0 | Plant response rating, Barnyardgrass [12]: 0; Plant response rating, Crabgrass, Large [13, 21]: 10; Plant response rating, Crabgrass, Large [13, 22]: 40; Plant response rating, Velvetleaf [14]: 0; Velvetleaf plant response rating [14]: 40; Plant response rating, Corn [15, 21]: 0; Plant response rating, Corn [15, 22]: 0; Plant response rating, Foxtail, Giant [16, 21]: 20; Plant response rating, Foxtail, Giant [16, 22]: 30; Plant response rating, Rice [17]: 0; Plant response rating, Crabgrass, Large [18]: 10; Crabgrass, Large plant response rating [18]: 40; Plant response rating, Morningglory [19, 21]: 0; Plant response rating, Morningglory [19, 22]: 0; Plant response rating, Barnyardgrass [20, 21]: 0; Plant response rating, Barnyardgrass [20, 22]: 0
3 | CC(C)(C)c1ccn(-c2ccccc2Oc2ncc(Br)cn2)n1 [Compound 30] | 20 | 30 | 0 | 10 | 0 | 0 | 0 | 0 | 30 | 0 | 30 | 0 | 0 | 0 | 0 | 0 | 0 | 0 | 0 | 0 | Plant response rating, Barnyardgrass [12]: 0; Plant response rating, Crabgrass, Large [13, 21]: 30; Plant response rating, Crabgrass, Large [13, 22]: 40; Plant response rating, Velvetleaf [14]: 10; Velvetleaf plant response rating [14]: 40; Plant response rating, Corn [15, 21]: 0; Plant response rating, Corn [15, 22]: 0; Plant response rating, Foxtail, Giant [16, 21]: 10; Plant response rating, Foxtail, Giant [16, 22]: 10; Plant response rating, Rice [17]: 0; Plant response rating, Crabgrass, Large [18]: 40; Crabgrass, Large plant response rating [18]: 60; Plant response rating, Morningglory [19, 21]: 0; Plant response rating, Morningglory [19, 22]: 0; Plant response rating, Barnyardgrass [20, 21]: 10; Plant response rating, Barnyardgrass [20, 22]: 10
4 | COc1ccc(Oc2ncc(Cl)cn2)c(-n2cc(Br)cn2)c1 [Compound 42] | 60 | 70 | 0 | 10 | 45 | 0 | 0 | 0 | 30 | 10 | 20 | 0 | 0 | 0 | 0 | 0 | 0 | 20 | 0 | 0 | Plant response rating, Barnyardgrass [12]: 0; Plant response rating, Crabgrass, Large [13, 21]: 10; Plant response rating, Crabgrass, Large [13, 22]: 50; Plant response rating, Velvetleaf [14]: 60; Velvetleaf plant response rating [14]: 60; Plant response rating, Corn [15, 21]: 0; Plant response rating, Corn [15, 22]: 0; Plant response rating, Foxtail, Giant [16, 21]: 0; Plant response rating, Foxtail, Giant [16, 22]: 30; Plant response rating, Rice [17]: 15; Plant response rating, Crabgrass, Large [18]: 10; Crabgrass, Large plant response rating [18]: 30; Plant response rating, Morningglory [19, 21]: 20; Plant response rating, Morningglory [19, 22]: 40; Plant response rating, Barnyardgrass [20, 21]: 0; Plant response rating, Barnyardgrass [20, 22]: 0

Reference: patent US9695155B2, “Herbicidal substituted pyrimidinyloxy benzene compounds” (E. I. DU PONT DE NEMOURS AND COMPANY, priority 2013, dated 2017)
